Laboratory results as given in US7566727B2, “2-(1-aza-bicyclo[2.2.2]oct-3-yl)-2,3-dihydro-isoindole-1-one/5,6-dihydro-furo[2,3-c] pyrrol-4-one derivative ligands for alpha 7 nicotinic acetylcholine receptor” (priority 2004, dated 2009).

Target: α7 nAChR subtype (Rattus norvegicus, UniProt Q05941)
Assay: Test A: 125I-α-Bungarotoxin binding to rat hippocampal membranes (affinity at α7 nAChR subtype)
Details: [125I]α-BTX displacement, rat hippocampal membranes
Method: Test A—Assay for Affinity at α7 nAChR subtype
125I-α-Bungarotoxin (BTX) binding to rat hippocampal membranes. Rat hippocampi were homogenized in 20 volumes of cold homogenization buffer (HB: concentrations of constituents (mM): tris(hydroxymethyl)aminomethane 50; MgCl2 1; NaCl 120; KCl 5: pH 7.4). The homogenate was centrifuged for 5 minutes at 1000 g, the supernatant was saved and the pellet re-extracted. The pooled supernatants were centrifuged for 20 minutes at 12,000 g, washed, and re-suspended in HB. Membranes (30-80 μg) were incubated with 5 nM [^125I] α-BTX, 1 mg/mL BSA (bovine serum albumin), test drug, and either 2 mM CaCl2 or 0.5 mM EGTA [ethylene glycol-bis(β-aminoethylether)] for 2 hours at 21° C., and then filtered and washed 4 times over Whatman glass fibre filters (thickness C) using a Brandel cell harvester.
Binding data analysis for Tests A and B
IC50 values and pseudo Hill coefficients (nH) were calculated using the non-linear curve fitting program ALLFIT (DeLean A, Munson P J and Rodbard D (1977) Am. J. Physiol., 235:E97-E102). […] Ki values were determined using 6 or more drug concentrations.

Chain of α7 nAChR subtype (Q05941 23-502): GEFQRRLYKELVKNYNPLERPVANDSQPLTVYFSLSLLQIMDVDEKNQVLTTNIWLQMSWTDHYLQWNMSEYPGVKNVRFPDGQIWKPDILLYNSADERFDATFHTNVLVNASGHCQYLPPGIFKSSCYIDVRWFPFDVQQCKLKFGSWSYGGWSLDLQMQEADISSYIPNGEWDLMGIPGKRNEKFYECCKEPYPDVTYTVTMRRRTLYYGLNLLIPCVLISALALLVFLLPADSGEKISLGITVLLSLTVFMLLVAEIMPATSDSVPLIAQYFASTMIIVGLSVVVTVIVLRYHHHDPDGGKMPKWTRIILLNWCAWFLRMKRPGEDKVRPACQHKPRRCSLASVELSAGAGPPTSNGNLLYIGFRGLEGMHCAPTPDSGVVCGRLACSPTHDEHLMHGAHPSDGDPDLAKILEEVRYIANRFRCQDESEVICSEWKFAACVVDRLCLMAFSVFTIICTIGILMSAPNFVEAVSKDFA

SMILES	Ki [nM]
CC(=O)Nc1ccccc1-c1ccc2c(c1)C(=O)N([C@H]1CN3CCC1CC3)C2 [Example 65, N-[2-((R)-2-1-Aza-bicyclo[2.2.2]oct-3-yl-3-oxo-2,3-dihydro-1H-isoindol-5-yl)-phenyl]-acetamide]	1150
CCN(CC)C(=O)c1cccc(-c2ccc3c(c2)C(=O)N([C@H]2CN4CCC2CC4)C3)c1 [Example 66, 3-((R)-2-1-Aza-bicyclo[2.2.2]oct-3-yl-3-oxo-2,3-dihydro-1H-isoindol-5-yl)-N,N-diethyl-benzamide]	20
O=C1c2cc(-c3cccc(OCc4ccccc4)c3)ccc2CN1[C@H]1CN2CCC1CC2 [Example 67, 2-(R)-1-Aza-bicyclo[2.2.2]oct-3-yl-6-(3-benzyloxy-phenyl)-2,3-dihydro-isoindol-1-one]	51
O=C(c1cccc(-c2ccc3c(c2)C(=O)N([C@H]2CN4CCC2CC4)C3)c1)N1CCOCC1 [Example 68, 2-(R)-1-Aza-bicyclo[2.2.2]oct-3-yl-6-[3-(morpholine-4-carbonyl)-phenyl]-2,3-dihydro-isoindol-1-one]	44
O=C(c1cccc(-c2ccc3c(c2)C(=O)N([C@H]2CN4CCC2CC4)C3)c1)N1CCCCC1 [Example 69, 2-(R)-1-Aza-bicyclo[2.2.2]oct-3-yl-6-[3-(piperidine-1-carbonyl)-phenyl]-2,3-dihydro-isoindol-1-one]	23
O=C(c1cccc(-c2ccc3c(c2)C(=O)N([C@H]2CN4CCC2CC4)C3)c1)N1CCCC1 [Example 70, 2-(R)-1-Aza-bicyclo[2.2.2]oct-3-yl-6-[3-(pyrrolidine-1-carbonyl)-phenyl]-2,3-dihydro-isoindol-1-one]	14
CN(C)c1cccc(-c2ccc3c(c2)C(=O)N([C@H]2CN4CCC2CC4)C3)c1 [Example 71, 2-(R)-1-Aza-bicyclo[2.2.2]oct-3-yl-6-(3-dimethylamino-phenyl)-2,3-dihydro-isoindol-1-one]	4.2
CSc1cccc(-c2ccc3c(c2)C(=O)N([C@H]2CN4CCC2CC4)C3)c1 [Example 72, 2-(R)-1-Aza-bicyclo[2.2.2]oct-3-yl-6-(3-methylsulfanyl-phenyl)-2,3-dihydro-isoindol-1-one]	37
